Experimental findings from patent publication US10610586B2, “Compositions for antigen-specific induction of tolerance” (STALLERGENES, priority 2005, dated 2020) are described below.

One test relates to human T cells. Put plainly: Gene expression by human T cells after coculture with adjuvant-treated DC (quantitative PCR). The note with it: human DC treated with adjuvant 24 h, cultured with allogenic naive CD4+ T cells, mRNA 24 h to 5 days later; only above 2-fold increase considered significant. The format is cell-based.
Test [1] deals with BALB/c mice sensitized with OVA. Put plainly: Sublingual tolerization in a therapeutic model of type I allergy: airway responsiveness by whole body plethysmography. The format is in vivo. Conditions: adjuvant given sublingually together with OVA 500 μg twice a week for 2 months to OVA-sensitized mice; methacholine 50 mg/ml; compared to PBS-treated mice or OVA alone. The protocol:
Sensitization was performed by two intraperitoneal (i.p.) injections in 14 days interval with 10 μg OVA adsorbed to 2 mg Al(OH)3 in a total volume of 100 μl. The sensitization was followed by a 20 min aerosol challenge with 1% w/v OVA on 5 consecutive days with an aerosol delivery system (Buxco Europe; Ltd, UK). Control animals were sham treated with sterile PBS. For tolerance induction in a therapeutic model, sensitized mice were sublingually treated with OVA or OVA plus adjuvant every week, twice a week, during 2 months at a concentration of 500 μg (20 μl). Control mice were sensitized with OVA followed by sham tolerization with PBS. Measurements of airway responsiveness were performed by whole body plethysmography (Buxco Europe; Ltd, UK), 48 h after the last challenge for sensitisation or tolerization. Airflow signals were recorded in response to aerosolized methacholine (50 mg/ml), 1 minute, four times. The higher value of Penh (enhanced pause) was taken into account for the calculation of the Penh index (Penh index=Penh measured/Penh PBS).

The test system of the next test is TGF-β. Nature of the test: TGF-β production in supernatant of spleen cell cultures after sublingual tolerization. The class given is in vivo. The note with it: OVA-sensitized mice treated sublingually with OVA plus adjuvant; compared to PBS-treated mice or OVA alone. The protocol:
For tolerance induction in a therapeutic model, sensitized mice were sublingually treated with OVA or OVA plus adjuvant every week, twice a week, during 2 months at a concentration of 500 μg (20 μl). Control mice were sensitized with OVA followed by sham tolerization with PBS. Dosage of TGF-β from supernatants of spleen cell cultures was performed with an ELISA kit (R&D systems). Mice were killed by cervical dislocation. Spleens cells were isolated and plated in triplicate in 96-well flat-bottomed ELISPOT plates (Millipore, Massachussets) at densities of 2×10^5 cells per well. Different conditions were used: medium alone, OVA (100μg/ml) and PMA (phorbol myristyl acetate) (50 ng/ml, Sigma)/ionomycin (500 ng/ml, Sigma) which was used as positive control. Spot forming cells (SFCs) were monitored for IFN-γ, IL-5 and IL10. Elispot kits were from R&D systems Europe.

Description for human T cells: Dendritic cells DC were treated with candidate adjuvants for 24 h, washed and cultured with purified allogenic naïve CD4+ T cells. mRNAs were extracted 24 h to 5 days later and gene expression was assessed by quantitative PCR with primers specific for the tested genes. Only data above 2-fold increase were considered as significant.
A human in vitro model, consisting of a coculture of human pretreated DC with allogenic T cells, has been used to select IL-10-inducing adjuvants. Briefly, human DC were treated with adjuvants. After 24 h, the DC were washed and cultured with allogenic naive CD4+ T cells. After 24 h to 5 days, gene expression in human T cells was assessed by quantitative PCR.

For the substance Lactobacillus plantarum [L. plantarum], the “Gene expression by T cells: IL10” value with human T cells is recorded as “induce IL10 gene expression”. In addition, in test [1], the “airway responsiveness (Penh in response to methacholine)” value is “reduction of airway responsiveness”. Besides, the “TGF-β production in supernatant of spleen cell cultures” value in the test on TGF-β was “enhanced”.
